Target: T1, Nav1.7 voltage-gated sodium channel (Homo sapiens, UniProt Q15858)
T1 construct: Gene(s) encoding the full-length protein of the voltage-gated sodium channel of interest are cloned and expressed; expressed in transfected cells
Experiment: Whole-cell voltage clamp electrophysiology assay
Type: cell-based
Details: cells stably expressing the voltage-gated sodium channel of interest
From the text: Gene(s) encoding the full-length protein of the voltage-gated sodium channel of interest are cloned and expressed under a suitable promoter in a suitable cell line, as well known in the art. […] Suitable screening assays are as follows.
Electrophysiological studies can be performed using automated patch-clamp electrophysiology platforms, like IonWorks HT, IonWorks Quattro, PatchXpress, QPatch or any other suitable platform. […] Suitable extracellular and intracellular buffer for such experiments are applied according to the instructions given by the manufacturer of the automated patch-clamp platforms. Cells that express the voltage-gated sodium channel protein of interest are exposed to drugs through the pipetting system integrated in the platforms. A suitable voltage stimulus protocol is used to activate the voltage-gated sodium channel proteins of interest through depolarisation from a defined holding potential.
Electrophysiological studies can also be performed using the whole cell configuration of the standard patch clamp technique. In this assay, cells that express the voltage-gated sodium channel protein of interest are exposed to the drugs by conventional microperfusion systems and a suitable voltage stimulus protocol is used to activate the voltage-gated sodium channels.

T1 sequence (Q15858 whole entry): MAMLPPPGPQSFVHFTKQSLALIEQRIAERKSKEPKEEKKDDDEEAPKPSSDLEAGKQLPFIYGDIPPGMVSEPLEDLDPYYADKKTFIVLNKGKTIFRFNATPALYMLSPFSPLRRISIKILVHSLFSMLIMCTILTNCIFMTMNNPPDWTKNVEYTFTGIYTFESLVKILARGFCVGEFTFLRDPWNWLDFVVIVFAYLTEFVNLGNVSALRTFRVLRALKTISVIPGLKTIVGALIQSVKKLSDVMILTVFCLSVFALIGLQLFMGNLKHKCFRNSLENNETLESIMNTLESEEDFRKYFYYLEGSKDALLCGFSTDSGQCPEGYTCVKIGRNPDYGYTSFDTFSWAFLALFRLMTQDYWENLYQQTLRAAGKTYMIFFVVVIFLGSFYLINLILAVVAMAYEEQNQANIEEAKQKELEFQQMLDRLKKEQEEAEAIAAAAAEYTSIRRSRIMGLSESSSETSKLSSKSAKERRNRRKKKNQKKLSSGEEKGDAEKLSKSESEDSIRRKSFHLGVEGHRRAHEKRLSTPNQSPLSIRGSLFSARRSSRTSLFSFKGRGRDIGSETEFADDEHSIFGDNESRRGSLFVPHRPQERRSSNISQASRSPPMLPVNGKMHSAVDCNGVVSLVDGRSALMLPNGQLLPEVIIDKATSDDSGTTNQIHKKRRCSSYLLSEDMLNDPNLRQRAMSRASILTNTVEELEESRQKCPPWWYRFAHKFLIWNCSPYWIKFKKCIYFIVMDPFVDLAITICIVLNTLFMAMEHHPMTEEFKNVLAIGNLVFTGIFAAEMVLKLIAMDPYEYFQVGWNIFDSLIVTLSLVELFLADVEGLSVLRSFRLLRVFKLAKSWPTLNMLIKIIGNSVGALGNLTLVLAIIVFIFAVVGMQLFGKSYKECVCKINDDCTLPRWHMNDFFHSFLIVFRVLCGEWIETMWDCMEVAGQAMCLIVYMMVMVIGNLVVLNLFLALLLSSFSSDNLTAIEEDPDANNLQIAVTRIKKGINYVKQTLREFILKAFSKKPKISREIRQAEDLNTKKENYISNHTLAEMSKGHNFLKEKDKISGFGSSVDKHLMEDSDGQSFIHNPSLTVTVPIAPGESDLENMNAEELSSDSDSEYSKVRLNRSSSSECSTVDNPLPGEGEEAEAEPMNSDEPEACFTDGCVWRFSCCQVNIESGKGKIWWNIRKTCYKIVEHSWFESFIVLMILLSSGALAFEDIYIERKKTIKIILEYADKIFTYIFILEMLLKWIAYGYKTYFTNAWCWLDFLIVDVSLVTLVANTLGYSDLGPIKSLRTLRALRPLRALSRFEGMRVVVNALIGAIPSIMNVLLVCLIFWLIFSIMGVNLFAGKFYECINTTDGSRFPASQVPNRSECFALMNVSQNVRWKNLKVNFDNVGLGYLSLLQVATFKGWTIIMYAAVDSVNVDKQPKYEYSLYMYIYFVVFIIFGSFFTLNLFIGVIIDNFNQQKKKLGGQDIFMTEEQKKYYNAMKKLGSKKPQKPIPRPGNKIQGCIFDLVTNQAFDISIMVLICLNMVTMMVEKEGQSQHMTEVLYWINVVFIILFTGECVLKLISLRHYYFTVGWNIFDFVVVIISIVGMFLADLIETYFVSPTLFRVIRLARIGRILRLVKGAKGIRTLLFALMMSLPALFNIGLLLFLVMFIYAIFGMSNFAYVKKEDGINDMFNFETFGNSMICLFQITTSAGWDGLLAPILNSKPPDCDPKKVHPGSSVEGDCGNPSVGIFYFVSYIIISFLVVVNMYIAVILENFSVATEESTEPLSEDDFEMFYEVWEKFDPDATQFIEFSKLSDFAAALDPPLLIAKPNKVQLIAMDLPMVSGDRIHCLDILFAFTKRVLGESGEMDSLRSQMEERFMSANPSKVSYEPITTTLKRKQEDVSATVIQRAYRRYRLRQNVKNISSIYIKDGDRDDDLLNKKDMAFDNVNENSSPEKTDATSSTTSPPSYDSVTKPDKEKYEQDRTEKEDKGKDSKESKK

Compound	IC50 [nM]
O=C(N[C@@H]1COc2cccc(-c3ccncc3)c2C1)c1ccc(OC(F)(F)F)cc1 [Example 1, N-[(3S)-5-Pyridin-4-yl-3,4-dihydro-2H-chromen-3-yl]-4-(trifluoromethoxy)-benzamide]	398
CCCCOc1ccc(C(=O)N[C@@H]2COc3cccc(-c4ccncc4)c3C2)cc1 [Example 2, 4-Butoxy-N-[(3S)-5-pyridin-4-yl-3,4-dihydro-2H-chromen-3-yl]benzamide]	126
O=C(N[C@@H]1CCc2cccc(-c3ccncc3)c2C1)c1ccc(OS(=O)(=O)C(F)(F)F)cc1 [Example 3, 4-{[(2R)-8-Pyridin-4-yl-1,2,3,4-tetrahydronaphthalen-2-yl]carbamoyl}phenyl trifluoromethanesulfonate]	251
Cn1cc(-c2cccc3c2C[C@H](NC(=O)c2ccc(OS(=O)(=O)C(F)(F)F)cc2)CC3)cn1 [Example 7, 4-{[(2R)-8-(1-Methyl-1H-pyrazol-4-yl)-1,2,3,4-tetrahydronaphthalen-2-yl]carbamoyl}phenyl trifluoromethanesulfonate]	200
Cc1nn(-c2ccccc2)nc1C(=O)N[C@@H]1CCc2cccc(-c3cnn(C)c3)c2C1 [Example 8, 5-Methyl-N-[(2R)-8-(1-methyl-1H-pyrazol-4-yl)-1,2,3,4-tetrahydronaphthalen-2-yl]-2-phenyl-2H-1,2,3-triazole-4-carboxamide]	1580
Cc1n[nH]c(C)c1-c1cccc2c1C[C@H](NC(=O)c1ccc(OC(F)(F)F)cc1)CC2 [Example 9, N-[(2R)-8-(3,5-Dimethyl-1H-pyrazol-4-yl)-1,2,3,4-tetrahydronaphthalen-2-yl]-4-(trifluoromethoxy)-benzamide]	6310
Cc1noc(C)c1-c1cccc2c1C[C@H](NC(=O)c1ccc(OS(=O)(=O)C(F)(F)F)cc1)CC2 [Example 11, 4-{[(2R)-8-(3,5-Dimethylisoxazol-4-yl)-1,2,3,4-tetrahydronaphthalen-2-yl]carbamoyl}phenyl trifluoromethanesulfonate]	631
O=C(N[C@@H]1CCc2cccc(-c3ccncc3)c2C1)c1ccc(OC2CCCC2)nc1 [Example 15, 6-(cyclopentyloxy)-N-[(2R)-8-pyridin-4-yl-1,2,3,4-tetrahydronaphthalen-2-yl]nicotin-amide]	25.1
COc1ccc(C(=O)N[C@@H]2CCc3cccc(-c4ccncc4)c3C2)c(OC)c1 [Example 16, 2,4-dimethoxy-N-[(2R)-8-pyridin-4-yl-1,2,3,4-tetrahydronaphthalen-2-yl]-benzamide]	2000
O=C(N[C@@H]1COc2cccc(-c3ccncc3)c2C1)c1ccc(OCC(F)(F)F)nc1 [Example 18, N-[(3S)-5-pyridin-4-yl-3,4-dihydro-2H-chromen-3-yl]-6-(2,2,2-trifluoroethoxy)nicotinamide]	100
O=C(N[C@@H]1COc2cccc(-c3ccncc3)c2C1)c1ccc(OCCC(F)(F)F)nc1 [Example 19, N-[(3S)-5-pyridin-4-yl-3,4-dihydro-2H-chromen-3-yl]-6-(3,3,3-trifluoropropoxy)nicotin-amide]	79.4
Cc1nn(-c2ccccc2)nc1C(=O)N[C@@H]1COc2cccc(-c3ccncc3)c2C1 [Example 23, 5-methyl-2-phenyl-N-[(3S)-5-pyridin-4-yl-3,4-dihydro-2H-chromen-3-yl]-2H-1,2,3-triazole-4-carboxamide]	1260
CC(C)COc1ccc(C(=O)N[C@@H]2COc3cccc(-c4ccncc4)c3C2)cn1 [Example 24, 6-isobutoxy-N-[(3S)-5-pyridin-4-yl-3,4-dihydro-2H-chromen-3-yl]nicotin-amide]	126
O=C(N[C@@H]1COc2cccc(-c3ccncc3)c2C1)c1ccc(OCC(F)F)nc1 [Example 26, 6-(2,2-difluoroethoxy)-N-[(3S)-5-pyridin-4-yl-3,4-dihydro-2H-chromen-3-yl]nicotin-amide]	631
O=C(N[C@@H]1COc2cccc(-c3ccncc3)c2C1)c1ccc(OC(CF)CF)nc1 [Example 27, 6-[2-fluoro-1-(fluoromethyl)ethoxy]-N-[(3S)-5-pyridin-4-yl-3,4-dihydro-2H-chromen-3-yl]nicotin-amide]	631

The remaining molecules from weak to strong by IC50, led by results:

IC50 [nM]	Compound
6310	COc1ccc(C(=O)N[C@@H]2COc3cccc(-c4ccncc4)c3C2)c(OC)c1 [Example 22, 2,4-dimethoxy-N-[(3S)-5-pyridin-4-yl-3,4-dihydro-2H-chromen-3-yl]benzamide]
3980	Cc1noc(C)c1-c1cccc2c1C[C@H](NC(=O)c1ccc(OC(F)(F)F)cc1)CC2 [Example 10, N-[(2R)-8-(3,5-Dimethylisoxazol-4-yl)-1,2,3,4-tetrahydronaphthalen-2-yl]-4-(trifluoromethoxy)-benzamide]
3980	Cc1nn(-c2ccccc2)nc1C(=O)N[C@@H]1CCc2cccc(-c3ccncc3)c2C1 [Example 17, 5-methyl-2-phenyl-N-[(2R)-8-pyridin-4-yl-1,2,3,4-tetrahydronaphthalen-2-yl]-2H-1,2,3-triazole-4-carboxamide]
2000	CCOc1ccc(C(=O)N[C@@H]2COc3cccc(-c4ccncc4)c3C2)cn1 [Example 25, 6-ethoxy-N-[(3S)-5-pyridin-4-yl-3,4-dihydro-2H-chromen-3-yl]nicotin-amide]
1580	O=C(N[C@@H]1COc2cccc(-c3ccccn3)c2C1)c1ccc(OC(F)(F)F)cc1 [Example 5, N-[(3S)-5-Pyridin-2-yl-3,4-dihydro-2H-chromen-3-yl]-4-(trifluoromethoxy)-benzamide]
1000	Cn1cc(-c2cccc3c2C[C@H](NC(=O)c2ccc(OC(F)(F)F)cc2)CC3)cn1 [Example 6, N-[(2R)-8-(1-Methyl-1H-pyrazol-4-yl)-1,2,3,4-tetrahydronaphthalen-2-yl]-4-(trifluoromethoxy)-benzamide]
251	CC(C)Oc1ccc(C(=O)N[C@@H]2CCc3cccc(-c4ccncc4)c3C2)cn1 [Example 14, 6-isopropoxy-N-[(2R)-8-pyridin-4-yl-1,2,3,4-tetrahydronaphthalen-2-yl]nicotin-amide]
158	CC(C)Oc1ccc(C(=O)N[C@@H]2COc3cccc(-c4ccncc4)c3C2)cn1 [Example 20, 6-isopropoxy-N-[(3S)-5-pyridin-4-yl-3,4-dihydro-2H-chromen-3-yl]nicotin-amide]
100	O=C(N[C@@H]1COc2cccc(-c3ccncc3)c2C1)c1cnc(OC2CCCC2)nc1 [Example 28, 2-(cyclopentyloxy)-N-[(3S)-5-pyridin-4-yl-3,4-dihydro-2H-chromen-3-yl]Pyrimidine-5-carboxamide]
63.1	O=C(N[C@@H]1CCc2cccc(-c3ccncc3)c2C1)c1ccc(OCC(F)(F)F)nc1 [Example 12, N-[(2R)-8-pyridin-4-yl-1,2,3,4-tetrahydronaphthalen-2-yl]-6-(2,2,2-trifluoroethoxy)nicotinamide]
63.1	O=C(N[C@@H]1COc2cccc(-c3ccncc3)c2C1)c1ccc(OC2CCCC2)nc1 [Example 21, 6-(cyclopentyloxy)-N-[(3S)-5-pyridin-4-yl-3,4-dihydro-2H-chromen-3-yl]nicotin-amide]
39.8	O=C(N[C@@H]1CCc2cccc(-c3ccncc3)c2C1)c1ccc(OCCC(F)(F)F)nc1 [Example 13, N-[(2R)-8-pyridin-4-yl-1,2,3,4-tetrahydronaphthalen-2-yl]-6-(3,3,3-trifluoropropoxy)nicotinamide]
